Measurements as given in PubChem BioAssay AID743235 (The Scripps Research Institute Molecular Screening Center, 2013).
Activity calls are given as the source filed them. How the calls were made is not given here.

Each molecule was assayed on Counterscreen cells for TAAR1 agonist assay, fluorescence (assay: agonism at human TAAR1, counter-screen – cell-based, fluorescence, counter-screen for TAAR1 antagonist project, late-stage follow-up (AID 743235)).
For `Cc1ccc(CSCC(=O)Nc2cc(S(=O)(=O)N3CCOCC3)ccc2OCC(F)(F)F)cc1`, the EC50 was > 29.9 µM (inactive).
In the case of `O=C(NCCn1cc(SCc2ccccc2F)c2ccccc21)c1c(F)cccc1F`, the EC50 is reported as > 29.9 µM (inactive).
With `COc1cccc(-c2nn(-c3ccccc3)cc2C(=O)Nc2nccs2)c1` the EC50 was > 29.9 µM (inactive).
For `CCOC(=O)C1CCCN(c2c(C(=O)c3ccccc3)cnc3ccc(OC)cc23)C1` (stereo unspecified), the EC50 was 20.1 µM (inactive).
`COc1cc(NC(=O)c2cc3ccccc3o2)c(OC)cc1Cl` was tested, and the EC50 was > 29.9 µM (inactive).
In the case of `Cc1cccc(C(C#N)c2nc3ccccc3nc2C(F)(F)F)c1` (stereo unspecified), the EC50 is reported as > 29.9 µM (inactive).
